Test [1] relates to Klebsiella pneumoniae. The test is described as follows: Antibacterial activity against Klebsiella pneumoniae JMI:211 producing class A beta-lactamase, KPC-2 assessed as reduction in microbial growth incubated for 16 to 20 hrs by broth microdilution method. Format: functional. To be noted: time 16-20 hrs. In general terms: Dilution methods test growth across graded concentrations, often in twofold steps.

Test [2] has as its system Escherichia coli. The test is described as follows: Antibacterial activity against Escherichia coli NIHJ JC-2 assessed as reduction in microbial growth incubated for 16 to 20 hrs by broth microdilution method. As to conditions: time 16-20 hrs. Format: functional.
The test system of test [3] is Enterobacter cloacae. The test is described as follows: Antibacterial activity against Enterobacter cloacae SR36276 producing class C beta-lactamase, AmpC assessed as reduction in microbial growth incubated for 16 to 20 hrs by broth microdilution method. Format: functional. To be noted: time 16-20 hrs.
Test [4] concerns Klebsiella pneumoniae. The test is described as follows: Antibacterial activity against Klebsiella pneumoniae PLE producing class D beta-lactamase, OXA-48 assessed as reduction in microbial growth incubated for 16 to 20 hrs by broth microdilution method. Format: functional. To be noted: time 16-20 hrs.
Test [5] relates to Enterobacter cloacae. Put plainly: Antibacterial activity against Enterobacter cloacae IR32 producing class B beta-lactamase, NDM1 assessed as reduction in microbial growth incubated for 16 to 20 hrs by broth microdilution method. Format: functional. As to conditions: time 16-20 hrs.
Test [6] deals with Escherichia coli. Put plainly: Antibacterial activity against Escherichia coli SR34100 producing class A beta-lactamase, CTX-M-15 assessed as reduction in microbial growth incubated for 16 to 20 hrs by broth microdilution method. Format: functional. As to conditions: time 16-20 hrs.
Test [7] has as its system Enterobacterales. Put plainly: Antimicrobial activity against Enterobacterales producing OXA-48 assessed as reduction in microbial growth measured after 16 to 20 hrs in presence of avibactam by broth microdilution method. Type of test: functional. To be noted: time 16-20 hrs.
In test [8] the test system is Enterobacterales. Put plainly: Antimicrobial activity against Enterobacterales producing KPC assessed as reduction in microbial growth measured after 16 to 20 hrs in presence of avibactam by broth microdilution method. To be noted: time 16-20 hrs. Type of test: functional.
Test [9] has as its system Escherichia coli. Put plainly: Antibacterial activity against Escherichia coli NIHJ JC-2 strain assessed as reduction in microbial growth incubated for 16 to 20 hrs in presence of avibactam by broth microdilution method. Format: functional. To be noted: time 16-20 hrs.
The subject of test [10] is Enterobacterales. The test is described as follows: Antimicrobial activity against Enterobacterales producing VIM assessed as reduction in microbial growth measured after 16 to 20 hrs in presence of avibactam by broth microdilution method. Type of test: functional. As to conditions: time 16-20 hrs.
Test [11] has as its system Enterobacterales. Put plainly: Antimicrobial activity against Enterobacterales producing NDM assessed as reduction in microbial growth measured after 16 to 20 hrs in presence of avibactam by broth microdilution method. Format: functional. To be noted: time 16-20 hrs.
In test [12] the test system is Klebsiella pneumoniae. The test is described as follows: Antibacterial activity against Klebsiella pneumoniae PLE producing class D beta lactamase, OXA-48 assessed as reduction in microbial growth incubated for 16 to 20 hrs in presence of avibactam by broth microdilution method. Type of test: functional. To be noted: time 16-20 hrs.
Test [13] deals with Klebsiella pneumoniae. Put plainly: Antibacterial activity against Klebsiella pneumonia ATCC 13883 infected in cyclophosphamide-induced neutropenic Jcl:ICR mouse model assessed as log10 reduction in CFU at 3 mg/kg, sc administered at 2, 5 and 8 hrs after infection and measured at 10 hrs after infection. Type of test: functional.
The subject of test [14] is Escherichia coli. The test is described as follows: Antibacterial activity against Escherichia coli BL21(DE3) transfected with pET9a vector harboring class C beta lactamase, AmpC incubated for 16 to 20 hrs by broth microdilution method. To be noted: time 16-20 hrs. Format: functional.
Test [15] has as its system Enterobacter cloacae. Put plainly: Antibacterial activity against Enterobacter cloacae IR32 producing class B beta-lactamase, NDM-1 assessed as reduction in microbial growth incubated for 16 to 20 hrs in presence of avibactam by broth microdilution method. Format: functional. To be noted: time 16-20 hrs.
The subject of test [16] is Enterobacter cloacae. The test is described as follows: Antibacterial activity against Enterobacter cloacae 1,261,347 producing class A beta lactamase, PER-2 assessed as reduction in microbial growth incubated for 16 to 20 hrs in presence of avibactam by broth microdilution method. Format: functional. To be noted: time 16-20 hrs.
Test [17] has as its system Escherichia coli. The test is described as follows: Antibacterial activity against Escherichia coli BL21(DE3) transfected with pET9a vector harboring class A beta lactamase, CTX-M-15 incubated for 16 to 20 hrs by broth microdilution method. Format: functional. As to conditions: time 16-20 hrs.
The test system of test [18] is Enterobacter cloacae. Put plainly: Antibacterial activity against Enterobacter cloacae SR36276 producing class C beta lactamase, AmpC assessed as reduction in microbial growth incubated for 16 to 20 hrs in presence of avibactam by broth microdilution method. As to conditions: time 16-20 hrs. Type of test: functional.
For test [19], the system named is Klebsiella pneumoniae. Put plainly: Antibacterial activity against Klebsiella pneumoniae JMI:211 producing class A beta lactamase, KPC-2 assessed as reduction in microbial, growth incubated for 16 to 20 hrs in presence of avibactam by broth microdilution method. Format: functional. To be noted: time 16-20 hrs.
The subject of test [20] is Escherichia coli. Put plainly: Antibacterial activity against Escherichia coli BL21(DE3) transfected with pET9a empty vector incubated for 16 to 20 hrs by broth microdilution method. Type of test: functional. To be noted: time 16-20 hrs.
Test [21] deals with Escherichia coli. Put plainly: Antibacterial activity against Escherichia coli BL21(DE3) transfected with pET9a vector harboring class B beta lactamase, NDM-1 incubated for 16 to 20 hrs by broth microdilution method. Format: functional. To be noted: time 16-20 hrs.
The test system of test [22] is Klebsiella pneumoniae. Put plainly: Antibacterial activity against Klebsiella pneumoniae ATCC13883 assessed as reduction in microbial growth incubated for 16 to 20 hrs by broth microdilution method. Format: functional. To be noted: time 16-20 hrs.
For test [23], the system named is Klebsiella pneumoniae. The test is described as follows: Antibacterial activity against Klebsiella pneumonia ATCC 13883 infected in cyclophosphamide-induced neutropenic Jcl:ICR mouse model assessed as log10 reduction in CFU at 10 mg/kg, sc administered at 2, 5 and 8 hrs after infection and measured at 10 hrs after infection. Format: functional.
For test [24], the system named is Escherichia coli. The test is described as follows: Antibacterial activity against Escherichia coli BL21(DE3) transfected with pET9a vector harboring class D beta lactamase, OXA-48 incubated for 16 to 20 hrs by broth microdilution method. Format: functional. To be noted: time 16-20 hrs.
Test [25] concerns Escherichia coli. The test is described as follows: Antibacterial activity against Escherichia coli SR34100 producing class A beta lactamase, CTX-M-15 assessed as reduction in microbial growth incubated for 16 to 20 hrs in presence of avibactam by broth microdilution method.
Test [26] relates to Klebsiella pneumoniae. Put plainly: Antibacterial activity against Klebsiella pneumoniae PLE producing class D beta-lactamase, OXA-48 assessed as reduction in microbial growth incubated for 16 to 20 hrs in presence of vaborbactam by broth microdilution method. Format: functional. To be noted: time 16-20 hrs.
The subject of test [27] is Escherichia coli. Put plainly: Antibacterial activity against Escherichia coli SR34100 producing class A beta lactamase, CTX-M-15 assessed as reduction in microbial growth incubated for 16 to 20 hrs in presence of vaborbactam by broth microdilution method. Format: functional. As to conditions: time 16-20 hrs.
The subject of test [28] is Enterobacter cloacae. Put plainly: Antibacterial activity against Enterobacter cloacae IR32 producing class B beta-lactamase, NDM-1 assessed as reduction in microbial growth incubated for 16 to 20 hrs in presence of vaborbactam by broth microdilution method. To be noted: time 16-20 hrs. Format: functional.
In test [29] the test system is Escherichia coli. Put plainly: Antibacterial activity against Escherichia coli NIHJ JC-2 strain assessed as reduction in microbial growth incubated for 16 to 20 hrs in presence of vaborbactam by broth microdilution method. Format: functional. As to conditions: time 16-20 hrs.
For test [30], the system named is Klebsiella pneumoniae. Put plainly: Antibacterial activity against Klebsiella pneumoniae JMI:211 producing class A beta-lactamase, KPC-2 assessed as reduction in microbial growth incubated for 16 to 20 hrs in presence of vaborbactam by broth microdilution method. Type of test: functional. To be noted: time 16-20 hrs.
Test [31] concerns Enterobacter cloacae. The test is described as follows: Antibacterial activity against Enterobacter cloacae SR36276 producing class C beta-lactamase, AmpC assessed as reduction in microbial growth incubated for 16 to 20 hrs in presence of vaborbactam by broth microdilution method. Format: functional. To be noted: time 16-20 hrs.

Values after ≈ are worked out from the molar mass of the structure shown.

The MIC is the lowest concentration that inhibits growth of the organism. For orientation: MIC50 means the lowest concentration that inhibits either 50% of growth or 50% of the strains tested, depending on the study. Broadly, the MIC90 is the lowest concentration that inhibits either 90% of growth or 90% of the strains tested, depending on the study.

As to `CCO/N=C(\C(=O)N[C@@H]1C(=O)N2[C@@H]1[S@@+]([O-])C[C@@H]1CC(=O)O[C@@]12C(=O)O)c1csc(N)n1` (stereo in doubt), the minimum inhibitory concentration (MIC) in test [1] amounted to 0.5 µg/mL; in test [2], 0.25 µg/mL; in [3], 1 µg/mL; in [4], 4 µg/mL; in test [5] it was 0.5 µg/mL; in test [6], 0.5 µg/mL.
Turning to `C[C@H]1[C@H](NC(=O)/C(=N\OC(C)(C)C(=O)O)c2csc(N)n2)C(=O)N1S(=O)(=O)O` (stereo in doubt) [AZTREONAM], the MIC50 is 0.063 µg/mL in test [7], 0.5 µg/mL in test [8], 0.25 µg/mL in [10] and 0.25 µg/mL in [11]. Further, the MIC90 in test [7] came out at 0.25 µg/mL; in test [8], 1 µg/mL; in test [10], 2 µg/mL; in test [11] it was 1 µg/mL. In addition, the MIC in test [9] is 0.125 µg/mL.
With `CC(C)(O/N=C(\C(=O)N[C@@H]1C(=O)N2C(C(=O)[O-])=C(C[n+]3ccccc3)CS[C@H]12)c1csc(N)n1)C(=O)O` [CEFTAZIDIME], the MIC was 0.25 µg/mL in test [12]; 0.25 µg/mL (≈ 0.457 µM) in test [14]; greater than 32 µg/mL in test [15]; 0.25 µg/mL in [2]; greater than 32 µg/mL in [3]; 1 µg/mL in test [4]. The MIC in [16] was greater than 32 µg/mL; in test [17] it was 0.25 µg/mL (≈ 0.457 µM); in test [18], 1 µg/mL; in test [19], 1 µg/mL; in [20] it was 0.063 µg/mL (≈ 0.115 µM); in [21], greater than 16 µg/mL. Moreover, the minimal inhibitory concentration (MIC) in test [5] was greater than 32 µg/mL; in [9] it was 0.25 µg/mL; in [6] it was greater than 32 µg/mL; in test [22], 0.25 µg/mL; in test [24], 0.063 µg/mL (≈ 0.115 µM); in test [25] it was 1 µg/mL. Moreover, the Activity in test [13] worked out at 2.67 log10CFU; in test [23], 3.05 log10CFU. For the same compound, the MIC50 in test [7] is 0.125 µg/mL; in test [8], 4 µg/mL; in test [10], greater than 64 µg/mL; in [11], greater than 64 µg/mL. For the same compound, the MIC90 in test [7] is 4 µg/mL; in test [8], greater than 64 µg/mL; in test [10], greater than 64 µg/mL; in test [11], greater than 64 µg/mL.
Consider `C[C@@H](O)[C@H]1C(=O)N2C(C(=O)O)=C(S[C@@H]3CN[C@H](C(=O)N(C)C)C3)[C@H](C)[C@H]12` [MEROPENEM], for which the MIC is 1 µg/mL in test [26]; less than 0.031 µg/mL in test [27]; 16 µg/mL in test [28]; less than 0.031 µg/mL in [29]; less than 0.031 µg/mL in test [30]; less than 0.031 µg/mL in test [31].

For the origin of these results see ChEMBL document CHEMBL4808247 (Bioorg Med Chem, 2021).
